Legend:
SFRP-1 [1] = molecular target: T1, SFRP-1 (Homo sapiens, UniProt Q8N474); assay: Fluorescence polarization binding assay (competitive displacement of a probe compound from SFRP-1); conditions: fluorescence anisotropy, 45 nM SFRP-1, 20 nM probe;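 note: test compound competes with a fluorescent probe held by SFRP-1, seen as a drop in probe anisotropy after incubation in darkness, with anisotropy as function of rising compound dose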
T1 sequence (Q8N474 32-314): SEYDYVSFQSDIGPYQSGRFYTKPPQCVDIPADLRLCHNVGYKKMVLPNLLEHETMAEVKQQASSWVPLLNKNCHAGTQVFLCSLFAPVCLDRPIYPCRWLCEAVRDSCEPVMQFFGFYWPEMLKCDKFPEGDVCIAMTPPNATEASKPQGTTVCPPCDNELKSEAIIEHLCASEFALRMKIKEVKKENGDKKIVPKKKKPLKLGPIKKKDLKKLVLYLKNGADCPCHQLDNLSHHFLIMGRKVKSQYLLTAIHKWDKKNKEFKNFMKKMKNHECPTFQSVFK

SFRP-1 [2] = molecular target: T1, SFRP-1; assay: Cell-based assay for in vitro measurement of SFRP-1/SARP2 antagonist activity (U2OS cells co-transfected with 16x TCF-tk-Luciferase reporter, Wnt and hSFRP-1); conditions: for fold induction at 10 µM: U2OS, read-out: Fold Induction with SFRP-1, U2OS cells, single dose 10 μM, luciferase reporter, fold induction over SFRP-1 control;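 for all read-outs here: U2OS cells co-transfected with a TCF-tk luciferase reporter, a Wnt vector, hSFRP-1 or empty vector and CMV-βgal, luciferase luminescence read in cell lysates alongside βgal activity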

IC50 (SFRP-1 [1]) | EC50 (SFRP-1 [2]) | fold induction at 10 µM (SFRP-1 [2]) | Compound
200 nM | 441 nM | 2.1 | CC(=O)Nc1ccc(C(=O)N2CCC(NS(=O)(=O)c3cc(S(=O)(=O)c4ccccc4)ccc3C(F)(F)F)CC2)cc1 [Example 719, N-(4-{[4-({[5-(phenylsulfonyl)-2-(trifluoromethyl)phenyl]sulfonyl}amino)piperidin-1-yl]carbonyl}phenyl)acetamide]
6000 nM |  | 2 | O=S(=O)(N[C@H](CO)Cc1ccccc1)c1cc(S(=O)(=O)c2ccccc2)ccc1C(F)(F)F [Example 720, N-[(1S)-1-benzyl-2-hydroxyethyl]-5-(phenylsulfonyl)-2-(trifluoromethyl)benzenesulfonamide]
2000 nM |  | 2.7 | O=S(=O)(N[C@H](CO)Cc1c[nH]c2ccccc12)c1cc(S(=O)(=O)c2ccccc2)ccc1C(F)(F)F [Example 721, N-[(1S)-2-hydroxy-1-(1H-indol-3-ylmethyl)ethyl]-5-(phenylsulfonyl)-2-(trifluoromethyl)benzenesulfonamide]
200 nM | 790 nM | 4.5 | O=S(=O)(NCCc1ccc[n+]([O-])c1)c1cc(S(=O)(=O)c2ccccc2)ccc1C(F)(F)F [Example 723, N-[2-(1-oxidopyridin-3-yl)ethyl]-5-(phenylsulfonyl)-2-(trifluoromethyl)benzenesulfonamide]
500 nM | 1260 nM | 3.1 | C[C@@H](CO)NS(=O)(=O)c1cc(S(=O)(=O)c2ccccc2)ccc1C(F)(F)F [Example 725, N-[(1S)-2-hydroxy-1-methylethyl]-5-(phenylsulfonyl)-2-(trifluoromethyl)benzenesulfonamide]
800 nM |  | 3 | C[C@H](CO)NS(=O)(=O)c1cc(S(=O)(=O)c2ccccc2)ccc1C(F)(F)F [Example 726, N-[(1R)-2-hydroxy-1-methylethyl]-5-(phenylsulfonyl)-2-(trifluoromethyl)benzenesulfonamide]
10000 nM |  | 3.2 | CC(C)c1ccc(S(=O)(=O)c2ccc(F)cc2)cc1S(=O)(=O)NCC(O)c1ccccn1 (centres unmarked) [Example 727, 5-[(4-fluorophenyl)sulfonyl]-N-(2-hydroxy-2-pyridin-2-ylethyl)-2-isopropylbenzenesulfonamide]
4000 nM |  | 3.1 | CC(C)c1ccc(S(=O)(=O)c2ccccc2)cc1S(=O)(=O)NCC(O)c1ccccn1 (centres unmarked) [Example 728, N-(2-hydroxy-2-pyridin-2-ylethyl)-2-isopropyl-5-(phenylsulfonyl)benzene-sulfonamide]
15000 nM |  | 1.7 | Cc1cc(C)c(S(=O)(=O)c2ccccc2)cc1S(=O)(=O)NCC(O)c1ccccn1 (centres unmarked) [Example 729, N-(2-hydroxy-2-pyridin-2-ylethyl)-2,4-dimethyl-5-(phenylsulfonyl)benzenesulfonamide]
1900 nM |  | 3.3 | CC(C)c1ccc(S(=O)(=O)c2ccc(F)cc2)cc1S(=O)(=O)NCC(O)c1cccnc1 (centres unmarked) [Example 731, 5-[(4-fluorophenyl)sulfonyl]-N-(2-hydroxy-2-pyridin-3-ylethyl)-2-isopropylbenzenesulfonamide]
1100 nM |  | 4.2 | CC(C)c1ccc(S(=O)(=O)c2ccc(F)cc2)cc1S(=O)(=O)NCC(O)c1ccccc1 (centres unmarked) [Example 732, 5-[(4-fluorophenyl)sulfonyl]-N-(2-hydroxy-2-phenylethyl)-2-isopropylbenzenesulfonamide]
10000 nM |  | 2.5 | CC(CO)NS(=O)(=O)c1cc(S(=O)(=O)c2ccc(F)cc2)ccc1C(C)C (centres unmarked) [Example 733, 5-[(4-fluorophenyl)sulfonyl]-N-(2-hydroxy-1-methylethyl)-2-isopropylbenzenesulfonamide]
900 nM |  | 4.1 | CC(C)c1ccc(S(=O)(=O)c2ccccc2)cc1S(=O)(=O)NCC(O)c1cccnc1 (centres unmarked) [Example 735, N-(2-hydroxy-2-pyridin-3-ylethyl)-2-isopropyl-5-(phenylsulfonyl)benzenesulfonamide]
400 nM | 1760 nM | 5 | CC(C)c1ccc(S(=O)(=O)c2ccccc2)cc1S(=O)(=O)NCC(O)c1ccccc1 (centres unmarked) [Example 736, N-(2-hydroxy-2-phenylethyl)-2-isopropyl-5-(phenylsulfonyl)benzenesulfonamide]
7000 nM |  | 2.9 | CCC(O)CNS(=O)(=O)c1cc(S(=O)(=O)c2ccc(F)cc2)ccc1C(C)C (centres unmarked) [Example 738, 5-[(4-fluorophenyl)sulfonyl]-N-(2-hydroxybutyl)-2-isopropylbenzenesulfonamide]
180 nM | 720 nM | 5.1 | O=S(=O)(NCCn1ccnc1)c1cc(S(=O)(=O)c2ccccc2)ccc1C(F)(F)F [Example 739, N-[2-(1H-Imidazol-1-yl)ethyl]-5-(phenylsulfonyl)-2-(trifluoromethyl)benzenesulfonamide]
6000 nM |  | 3.3 | Cc1ccc(S(=O)(=O)c2ccc(F)cc2)cc1S(=O)(=O)NCC(O)c1cccnc1 (centres unmarked) [Example 740, 5-[(4-fluorophenyl)sulfonyl]-N-(2-hydroxy-2-pyridin-3-ylethyl)-2-methylbenzenesulfonamide]
300 nM | 1000 nM | 4.8 | O=S(=O)(NCC(O)c1cccnc1)c1cc(S(=O)(=O)c2ccccc2)ccc1C(F)(F)F (centres unmarked) [Example 741, N-(2-hydroxy-2-pyridin-3-ylethyl)-5-(phenylsulfonyl)-2-(trifluoromethyl)benzenesulfonamide]
280 nM |  | 2.4 | CC(C)(C)OC(=O)NCCNS(=O)(=O)c1cc(S(=O)(=O)c2ccccc2)ccc1C(F)(F)F [Example 742, tert-Butyl[2-({[5-(phenylsulfonyl)-2-(trifluoromethyl)phenyl]sulfonyl}amino)ethyl]carbamate]
200 nM | 852 nM | 3.1 | O=S(=O)(NC1CCOCC1)c1cc(S(=O)(=O)c2cccc(O)c2)ccc1C(F)(F)F [Example 744, 5-[(3-hydroxyphenyl)sulfonyl]-N-(tetrahydro-2H-pyran-4-yl)-2-(trifluoromethyl)benzenesulfonamide]
400 nM | 631 nM | 4.5 | COc1cccc(S(=O)(=O)c2ccc(C(F)(F)F)c(S(=O)(=O)NCCC#N)c2)c1 [Example 745, N-(2-cyanoethyl)-5-[(3-methoxyphenyl)sulfonyl]-2-(trifluoromethyl)benzenesulfonamide]
300 nM | 453 nM | 5 | COc1cccc(S(=O)(=O)c2ccc(C(F)(F)F)c(S(=O)(=O)NC3CCN(C(=O)c4ccc(C(C)(C)C)cc4)CC3)c2)c1 [Example 746, N-[1-(4-tert-butylbenzoyl)piperidin-4-yl]-5-[(3-methoxyphenyl)sulfonyl]-2-(trifluoromethyl)benzenesulfonamide]
90 nM | 779 nM | 5.7 | COc1cccc(S(=O)(=O)c2ccc(C(F)(F)F)c(S(=O)(=O)NCCc3cccnc3)c2)c1 [Example 747, 5-[(3-methoxyphenyl)sulfonyl]-N-(2-pyridin-3-ylethyl)-2-(trifluoromethyl)benzenesulfonamide]

Source: patent publication US20060276464A1, “Diarylsulfone sulfonamides and use thereof” (Wyeth, priority 2005, published 2006)
